# Measured values: US9776981B2, “Hepatitis C virus inhibitors” (BRISTOL-MYERS SQUIBB COMPANY, priority 2009, dated 2017)
# Read-outs that look alike come from different tables or passages of the source.
# Tested on: HCV 1b genotype (HCV-neo replicon cells)
# Assay: HCV Replicon assay (HCV 1b genotype)
# Format: cell-based
# Settings: Hepatitis C virus, HCV 1b genotype replicon
# Method: An HCV Replicon assay was utilized in the present disclosure, and was prepared, conducted and validated as described in commonly owned PCT/US2006/022197 and in O'Boyle et al., Antimicrob. Agents Chemother., 49(4):1346-1353 (April 2005). Assay methods incorporating luciferase reporters have also been used as described (Apath.com).
# HCV-neo replicon cells and replicon cells containing resistance substitutions in the NS5A region were used to test the currently described family of compounds. The compounds were determined to have differing degrees of reduced inhibitory activity on cells containing mutations vs. the corresponding inhibitory potency against wild-type cells. Thus, the compounds of the present disclosure can be effective in inhibiting the function of the HCV NS5A protein and are understood to be as effective in combinations as previously described in application PCT/US2006/022197 and commonly owned WO 04/014852. It should be understood that the compounds of the present disclosure can inhibit multiple genotypes of HCV. […] In one embodiment, compounds of the present disclosure are inhibitory versus 1a, 1b, 2a, 2b, 3a, 4a, and 5a genotypes.
# [1] = class symbol, read-out: Range (EC50 against HCV 1b)
Structure (SMILES),EC50 [1],EC50 (read-out: EC50)
"COC(=O)N[C@H](C(=O)N1CCC[C@H]1c1nc2ccc(-c3ccc4cc(-c5ccc6nc([C@@H]7CCCN7C(=O)[C@@H](NC(=O)OC)C7CC7)[nH]c6c5)ccc4c3)cc2[nH]1)C1CC1 [Example 11, Dimethyl (2,6-naphthalenediylbis(1H-benzimidazole-5,2-diyl(2S)-2,1-pyrrolidinediyl((1S)-1-cyclopropyl-2-oxo-2,1-ethanediyl)))biscarbamate]",0.0101 to 1 nM,0.0182 nM
"COC(=O)N[C@H](C(=O)N1[C@@H]2C[C@@H]2C[C@H]1c1ncc(-c2ccc3nc(-c4ccc5nc([C@@H]6C[C@H]7C[C@H]7N6C(=O)[C@@H](NC(=O)OC)C(C)C)[nH]c5c4)cnc3c2)[nH]1)C(C)C [Example 52, Methyl ((1S)-1-(((1R,3S,5R)-3-(4-(2-(2-((1R,3S,5R)-2-((2S)-2-((methoxycarbonyl)amino)-3-methylbutanoyl)-2-azabicyclo[3.1.0]hex-3-yl)-1H-benzimidazol-5-yl)-6-quinoxalinyl)-1H-imidazol-2-yl)-2-azabicyclo[3.1.0]hex-2-yl)carbonyl)-2-methylpropyl)carbamate]",,0.0059 nM
"COC(=O)N[C@H](C(=O)N1[C@@H]2C[C@@H]2C[C@H]1c1ncc(-c2ccc3nc(-c4ccc5nc([C@@H]6C[C@H]7C[C@H]7N6C(=O)[C@@H](NC(=O)OC)C6CCOCC6)[nH]c5c4)cnc3c2)[nH]1)C1CCOCC1 [Example 53, Methyl ((1S)-2-((1R,3S,5R)-3-(4-(2-(2-((1R,3S,5R)-2-((2S)-2-((methoxycarbonyl)amino)-2-(tetrahydro-2H-pyran-4-yl)acetyl)-2-azabicyclo[3.1.0]hex-3-yl)-1H-benzimidazol-5-yl)-6-quinoxalinyl)-1H-imidazol-2-yl)-2-azabicyclo[3.1.0]hex-2-yl)-2-oxo-1-(tetrahydro-2H-pyran-4-yl)ethyl)carbamate]",1.01 to 1000 nM,1.81 nM
"COC(=O)N[C@H](C(=O)N1[C@@H]2C[C@@H]2C[C@H]1c1ncc(-c2cnc3cc(-c4ccc5nc([C@@H]6C[C@H]7C[C@H]7N6C(=O)[C@@H](NC(=O)OC)C6CCOCC6)[nH]c5c4)ccc3n2)[nH]1)C1CCOCC1 [Example 58, Methyl ((1S)-2-((1R,3S,5R)-3-(4-(6-(2-((1R,3S,5R)-2-((2S)-2-((methoxycarbonyl)amino)-2-(tetrahydro-2H-pyran-4-yl)acetyl)-2-azabicyclo[3.1.0]hex-3-yl)-1H-benzimidazol-5-yl)-2-quinoxalinyl)-1H-imidazol-2-yl)-2-azabicyclo[3.1.0]hex-2-yl)-2-oxo-1-(tetrahydro-2H-pyran-4-yl)ethyl)carbamate]",0.0101 to 1 nM,0.849 nM
"COC(=O)N[C@H](C(=O)N1C[C@@H](C)C[C@H]1c1ncc(-c2ccc(-c3ccc4cc(-c5[nH]c([C@@H]6C[C@H](C)CN6C(=O)[C@@H](NC(=O)OC)C(C)C)nc5Cl)ccc4c3)cc2)[nH]1)C(C)C [Example 143, Methyl ((1S)-1-(((2S,4S)-2-(4-(4-(6-(4-chloro-2-((2S,4S)-1-((2S)-2-((methoxycarbonyl)amino)-3-methylbutanoyl)-4-methyl-2-pyrrolidinyl)-1H-imidazol-5-yl)-2-naphthyl)phenyl)-1H-imidazol-2-yl)-4-methyl-1-pyrrolidinyl)carbonyl)-2-methylpropyl)carbamate]",,0.00105 nM
"COC(=O)N[C@H](C(=O)N1C[C@@H](C)C[C@H]1c1ncc(-c2ccc(-c3ccc4cc(-c5[nH]c([C@@H]6C[C@H](C)CN6C(=O)[C@@H](NC(=O)OC)C6CCOCC6)nc5Cl)ccc4c3)cc2)[nH]1)C1CCOCC1 [Example 144, Methyl ((1S)-2-((2S,4S)-2-(4-(4-(6-(4-chloro-2-((2S,4S)-1-((2S)-2-((methoxycarbonyl)amino)-2-(tetrahydro-2H-pyran-4-yl)acetyl)-4-methyl-2-pyrrolidinyl)-1H-imidazol-5-yl)-2-naphthyl)phenyl)-1H-imidazol-2-yl)-4-methyl-1-pyrrolidinyl)-2-oxo-1-(tetrahydro-2H-pyran-4-yl)ethyl)carbamate]",0.0101 to 1 nM,0.0177 nM
"COC(=O)N[C@@H](C(=O)N[C@H](c1nc(-c2ccc3cc(-c4ccc(-c5cnc([C@@H](NC(=O)[C@H](NC(=O)OC)C(C)C)C(C)(C)C)[nH]5)cc4)ccc3c2)c[nH]1)C(C)(C)C)C(C)C [Example 148, Methyl ((1R)-1-(((1S)-1-(4-(4-(6-(2-((1S)-1-(((2R)-2-((methoxycarbonyl)amino)-3-methylbutanoyl)amino)-2,2-dimethylpropyl)-1H-imidazol-4-yl)-2-naphthyl)phenyl)-1H-imidazol-2-yl)-2,2-dimethylpropyl)carbamoyl)-2-methylpropyl)carbamate]",1.01 to 1000 nM,8.43 nM
"COC(=O)N[C@H](C(=O)N[C@H](c1nc(-c2ccc(-c3ccc4cc(-c5c[nH]c([C@@H](NC(=O)[C@@H](NC(=O)OC)C(C)C)C(C)(C)C)n5)ccc4c3)cc2)c[nH]1)C(C)(C)C)C(C)C [Example 149, methyl ((1S)-1-(((1S)-1-(4-(4-(6-(2-((1S)-1-(((2S)-2-((methoxycarbonyl)amino)-3-methylbutanoyl)amino)-2,2-dimethylpropyl)-1H-imidazol-4-yl)-2-naphthyl)phenyl)-1H-imidazol-2-yl)-2,2-dimethylpropyl)carbamoyl)-2-methylpropyl)carbamate]",0.0101 to 1 nM,
"CC(C)CC(=O)N[C@H](c1nc(-c2ccc(-c3ccc4cc(-c5c[nH]c([C@@H](NC(=O)CC(C)C)C(C)(C)C)n5)ccc4c3)cc2)c[nH]1)C(C)(C)C [Example 150, N-((1S)-1-(4-(4-(6-(2-((1S)-2,2-dimethyl-1-((3-methylbutanoyl)amino)propyl)-1H-imidazol-4-yl)-2-naphthyl)phenyl)-1H-imidazol-2-yl)-2,2-dimethylpropyl)-3-methylbutanamide]",1.01 to 1000 nM,
